Assay results published in paper PMC6017732, “Identification and Characterizations of Novel, Selective Histone Methyltransferase SET7 Inhibitors by Scaffold Hopping- and 2D-Molecular Fingerprint-Based Similarity Search” (Molecules : A Journal of Synthetic Chemistry and Natural …, 2018).
Where two headings read alike, the source gives them in different places.

Tests used:
[1] = target: T1, SET7 (Homo sapiens, UniProt Q8WTS6); assay: AlphaLISA SET7 inhibition assay; assay type: biochemical; settings: for IC50: SET7; for inhibition at 100 µM: read-out: Inhibition Ratio at 100 μM/%
T1 sequence (Q8WTS6 1-366): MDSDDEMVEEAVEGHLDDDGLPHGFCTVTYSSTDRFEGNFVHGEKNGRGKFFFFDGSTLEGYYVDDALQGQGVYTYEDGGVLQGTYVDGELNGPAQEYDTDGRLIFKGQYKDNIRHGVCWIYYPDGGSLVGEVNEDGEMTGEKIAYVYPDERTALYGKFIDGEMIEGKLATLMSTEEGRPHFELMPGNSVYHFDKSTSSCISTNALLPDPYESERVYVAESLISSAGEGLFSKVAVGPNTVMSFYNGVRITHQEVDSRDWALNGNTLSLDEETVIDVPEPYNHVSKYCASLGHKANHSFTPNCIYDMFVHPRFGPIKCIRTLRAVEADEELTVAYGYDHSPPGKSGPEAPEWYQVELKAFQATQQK
Procedure: AlphaLISA assays were applied to determine the inhibitory activity targeting SET7. The purified SET7 protein was incubated in modified Tris buffer in 384-well plates (Perkin Elmer, Cat. No. 6007299, Waltham, MA, USA) at room temperature for 15 min. The compounds were transferred to the assay plate using Echo in 100% DMSO, and substrate solution was added to each well to start the reaction. Acceptor and donor beads were added and incubated for 60 min at room temperature, shielded from light. The endpoint was evaluated with EndSpire in Alpha mode. The experimental data was fitted in GraphPad Prism 5 to obtain inhibition values using the equation as follows:(1) Inhibition %= Max−Siginal/Max−Min×100%

[2] = system: Jurkat leukemia cell line; assay: Cell viability assay (alamarBlue / MTT), Jurkat; assay type: cell-based; settings: Homo sapiens, 72 h, approximately 72 h
Procedure: (§1) MCF7, HL60, MV4-11, K562, Kasumi-1, U937, THP1, and Jurkat cell lines were purchased from American Type Culture Collection (Manassas, VA, USA). Fetal bovine serum was purchased from Life Technologies. MCF7 cells were cultured in DMEM medium supplemented with 10% fetal bovine serum at 37 °C in an incubator with 5% CO2 atmosphere. HL60 and MV4-11 cells were cultured in 1640 medium supplemented with 10% fetal bovine serum. K562, Kasumi-1 and HL60 were cultured in 96 plate at 10,000/well for 2 h. DC-S285 was dissolved in DMSO (Sigma) and then stored at 4 °C. The cells were incubated with DC-S285 at different concentrations ranging from 0 to 100 µM for approximately 72 h. The activities of […] against MCF7, HL60, MV4-11, K562, Kasumi-1, U937, THP1, and Jurkat were measured by the alamarBlue assays and MTT assays.

[3] = target: T1, SET7; assay: 3H-labeled radioisotope methylation assay; assay type: biochemical; settings: 3H radioactive methylation assay
Procedure: As for ^3Hradioactive methylation assay, SAH was used as the reference compound and the compounds were tested in 10 concentrations in duplicate in modified Tris buffer (1× assay buffer). The following materials were purchased: SET7 (Enzo, Cat. No. ALX-201-178, New York, NY, USA), [^3H]-SAM (PerkinElmer Inc., Lot. No. 1790854), SAH (Sigma, Cat. No. A9384-25MG, St. Louis, MO, USA) and 384-well Flashplate (Perkin Elmer, Cat. No. SMP410A001PK,). The compounds were transferred to the assay plate by Echo 550 with 3-fold dilution in 100% DMSO where the final DMSO concentration is 1%. Then the enzyme solution was transferred to the assay plate and 1× assay buffer was transferred for low control. After 15 min incubation at room temperature, peptide and [^3H]-SAM mix solution was transferred to each well to start the reaction. The cold SAM in 1× buffer was added to each well to stop the reaction after 60 min incubation at room temperature. 25 μL of the whole reaction system per well was transferred to Flashplate which was washed with dH2O and 0.1% Tween-20 for three times after 60 min incubation. The data was read on Microbeta. All the inhibition assays are performed in duplicate.

[4] = system: THP1 leukemia cell line; assay: Cell viability assay (alamarBlue / MTT), THP1; assay type: cell-based; settings: Homo sapiens, THP-1, 72 h, THP1, approximately 72 h
Procedure: as §1

[5] = target: T2, SET7 (Homo sapiens, UniProt Q8WTS6); assay: Ligand observed T1rho (CPMG) NMR experiment; assay type: binding; settings: 20 μM compound, 2.5 μM SET7
T2 sequence (Q8WTS6 117-366 limits assumed): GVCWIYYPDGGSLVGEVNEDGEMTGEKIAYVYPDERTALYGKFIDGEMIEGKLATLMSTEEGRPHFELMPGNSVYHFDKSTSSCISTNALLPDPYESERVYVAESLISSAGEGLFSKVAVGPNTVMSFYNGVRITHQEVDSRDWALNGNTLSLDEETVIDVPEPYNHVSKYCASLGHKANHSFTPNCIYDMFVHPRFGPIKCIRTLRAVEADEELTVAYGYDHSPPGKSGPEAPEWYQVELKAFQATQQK
Procedure: Ligand observed T1ρ NMR experiment were applied to investigate ligand-protein interactions. All NMR spectra were acquired at 25 °C on a 600 MHz Bruker Avance III spectrometer equipped with a cryogenically cooled probe (Bruker Biospin, Ettlingen, Germany). Samples containing 20 μM DC-S285, and 20 μM DC-S285 in the presence of 2.5 μM SET7 were dissolved in Tris-HCl buffer (50 mM Tris-HCl, 100 mM NaCl, pH 7.4, 5% DMSO, 95% D2O) and then used in NMR data acquisition. T1ρ spectra were recorded by using the pulse sequence of solvent-suppressed ^1D ^1H CPMG (cpmgPr1d). The 90° pulse length was adjusted to about 11.80 μs. A total of four dummy scans and 64 free induction decays (FIDs) were collected into 64 K acquisition points, covering a spectral width of 12 kHz (20 ppm) and giving an acquisition time (ACQ) of 2.73 s. STD data was acquired using 4 dummy scans and a relaxation delay of 3 s, followed by a 40 dB pulsed irradiation at frequency of −1.0 ppm or 33 ppm alternatively. The total acquisition time for STD spectrum was 23 min with 128 FIDs.

[6] = system: MCF7 (breast cancer) cells; assay: Cell viability assay (alamarBlue / MTT), MCF7; assay type: cell-based; settings: Homo sapiens, MCF7, 72 h, MCF7, approximately 72 h
Procedure: as §1

[7] = system: U937 leukemia cell line; assay: Cell viability assay (alamarBlue / MTT), U937; assay type: cell-based; settings: Homo sapiens, U-937, 72 h, U937, approximately 72 h
Procedure: as §1

[8] = target: T3, SETD1B (Homo sapiens, UniProt Q9UPS6); assay: Enzymatic selectivity assay SETD1B (Alpha mode); assay type: biochemical; settings: read-out: Inhibition Ratio at 100 μM/%
T3 construct: purchased Active Motif M1083
Procedure: (§2) For SETD1B, G9a and SMYD2, the activities against those targets were tested in modified Tris buffer (1× assay buffer). All the solid compounds were dissolved to 20 mM in 100% DMSO. The materials used were SETD1B (Active Motif, Cat. No. M1083, Carlsbad, CA, USA), G9a (BPS, Cat. No. 51001, San Diego, CA, USA), […] and 384-well plate (Perkin Elmer, Cat. No. 6007299). Both the enzyme solution and the substrate solution were prepared in 1× assay buffer enzyme solution or 1× assay buffer for low control was transferred to the assay plate. Then substrate mix solution was added to each well to start the solution for 15 min incubation at room temperature. For SETD1B, G9a, the incubation time was adjusted to 60 min and for SMYD2, the incubation time was set to 240 min. For detection, acceptor and donor beads were added and incubated for 60 min at room temperature, shielded from light. The endpoint was evaluated with EnSpire in Alpha mode.

[9] = target: T4, G9a (Homo sapiens, UniProt Q96KQ7); assay: Enzymatic selectivity assay G9a (Alpha mode); assay type: biochemical; settings: read-out: Inhibition Ratio at 100 μM/%
T4 construct: purchased BPS 51001
T4 sequence (Q96KQ7 785-1210 limits assumed): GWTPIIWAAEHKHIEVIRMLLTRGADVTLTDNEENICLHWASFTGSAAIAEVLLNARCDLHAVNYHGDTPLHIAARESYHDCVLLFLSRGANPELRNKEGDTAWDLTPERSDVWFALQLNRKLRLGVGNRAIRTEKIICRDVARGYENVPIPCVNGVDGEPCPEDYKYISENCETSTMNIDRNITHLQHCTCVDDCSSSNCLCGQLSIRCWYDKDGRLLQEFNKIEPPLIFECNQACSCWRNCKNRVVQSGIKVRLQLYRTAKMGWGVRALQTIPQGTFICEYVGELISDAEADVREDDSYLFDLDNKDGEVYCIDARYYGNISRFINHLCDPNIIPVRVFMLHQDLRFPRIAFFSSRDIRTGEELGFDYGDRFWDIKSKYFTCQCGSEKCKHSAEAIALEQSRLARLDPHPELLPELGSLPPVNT
Procedure: as §2

[10] = target: T5, SMYD2 (Homo sapiens, UniProt Q9NRG4); assay: Enzymatic selectivity assay SMYD2 (Alpha mode); assay type: biochemical; settings: SMYD2, 100 μM; read-out: Inhibition Ratio at 100 μM/%
T5 construct: purchased Active Motif 31323
Procedure: as §2

[11] = target: T6, SETD8 (Homo sapiens, UniProt Q9NQR1); assay: Radioactive methylation inhibition assay of SETD8; assay type: biochemical; settings: SETD8, 100 μM; read-out: Inhibition Ratio at 100 μM/%
T6 sequence (Q9NQR1 1-393): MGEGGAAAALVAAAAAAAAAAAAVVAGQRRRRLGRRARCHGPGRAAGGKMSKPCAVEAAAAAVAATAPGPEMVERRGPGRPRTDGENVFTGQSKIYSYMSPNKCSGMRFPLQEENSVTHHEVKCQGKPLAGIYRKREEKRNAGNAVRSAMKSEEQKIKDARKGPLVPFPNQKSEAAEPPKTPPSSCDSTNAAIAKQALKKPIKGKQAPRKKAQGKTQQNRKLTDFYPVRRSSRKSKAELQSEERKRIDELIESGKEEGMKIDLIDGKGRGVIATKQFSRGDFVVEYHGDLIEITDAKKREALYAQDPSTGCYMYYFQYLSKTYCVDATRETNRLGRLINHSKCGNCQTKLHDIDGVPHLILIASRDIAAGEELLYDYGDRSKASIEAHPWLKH
Procedure: The radioactive methylation inhibition assay of SETD8 was performed in modified Tris buffer. […] and [^3H]-SAM (PerkinElmer, Cat No. NET1551MC) were added in 1x buffer as the substrate solution. The enzyme solution was incubated at room temperature for 15 min before substrate solution was added to each well to start the reaction. Cold SAM (Sigma, Cat. No. 7007-100MG) was added in 1x buffer to prepare the stop mix, and was added to stop the reaction; finally 10 μL of the reaction system was transferred to flashplate (PerkinElmer Inc., Cat. No. SMP410A001PK) and incubated at room temperature for a minimum of 2 h. The plate was washed three times with dH2O and 0.1% Tween-20, and the radioactivity signal was detected by liquid scintillation counting (MicroBeta, PerkinElmer). SAH was used as the reference compound.

[12] = target: EZH2 (Homo sapiens, UniProt Q15910); assay: Radioactive methylation inhibition assay of EZH2; assay type: biochemical; settings: EZH2, 100 μM
Procedure: The radioactive methylation inhibition assay of EZH2 was performed in modified Tris buffer. H3K27me peptide and [^3H]-SAM (Perkin Elmer Inc. Waltham, MA, USA, Lot. No. 1731619) were added in 1x buffer as the substrate solution. The […] solution was incubated at room temperature for 15 min before substrate solution was added to each well to start the reaction. Cold SAM (Sigma, Cat. NO. 7007) was added in 1× buffer to prepare stop mix (final concentration 0.5 mM), and was added to stop the reaction; finally 25 μL of the reaction system was transferred to a FlashPlate (Perkin Elmer, Cat. No. SMP410A001PK) and incubated at room temperature for a minimum of 1 h. The plate was washed three times with dH2O and 0.1% Tween-20, and the radioactivity was determined by liquid scintillation counting (MicroBeta). GSK-126 was used as the reference compound.

EZH2, sequence (Q15910 whole entry, species assumed): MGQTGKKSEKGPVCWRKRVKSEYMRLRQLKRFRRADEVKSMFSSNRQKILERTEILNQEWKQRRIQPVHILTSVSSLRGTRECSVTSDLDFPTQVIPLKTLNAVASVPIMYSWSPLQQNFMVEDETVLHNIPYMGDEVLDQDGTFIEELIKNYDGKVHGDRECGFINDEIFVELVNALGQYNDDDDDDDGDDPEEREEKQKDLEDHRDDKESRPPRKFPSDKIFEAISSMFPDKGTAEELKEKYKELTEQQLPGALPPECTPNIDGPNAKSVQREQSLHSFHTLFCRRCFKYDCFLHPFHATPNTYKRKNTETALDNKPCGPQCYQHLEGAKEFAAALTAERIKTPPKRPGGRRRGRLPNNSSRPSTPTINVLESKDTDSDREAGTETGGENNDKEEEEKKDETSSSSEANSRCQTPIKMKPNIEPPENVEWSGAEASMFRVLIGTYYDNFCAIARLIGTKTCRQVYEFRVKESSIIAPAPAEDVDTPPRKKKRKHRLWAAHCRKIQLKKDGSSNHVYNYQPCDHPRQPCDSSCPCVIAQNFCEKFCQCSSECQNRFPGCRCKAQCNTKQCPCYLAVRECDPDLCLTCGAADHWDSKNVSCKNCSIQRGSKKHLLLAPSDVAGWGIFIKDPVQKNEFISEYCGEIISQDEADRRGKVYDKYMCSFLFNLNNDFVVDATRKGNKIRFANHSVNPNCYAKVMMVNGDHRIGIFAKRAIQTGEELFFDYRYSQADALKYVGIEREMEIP
EZH2, sequence (O75530 whole entry partner, species assumed): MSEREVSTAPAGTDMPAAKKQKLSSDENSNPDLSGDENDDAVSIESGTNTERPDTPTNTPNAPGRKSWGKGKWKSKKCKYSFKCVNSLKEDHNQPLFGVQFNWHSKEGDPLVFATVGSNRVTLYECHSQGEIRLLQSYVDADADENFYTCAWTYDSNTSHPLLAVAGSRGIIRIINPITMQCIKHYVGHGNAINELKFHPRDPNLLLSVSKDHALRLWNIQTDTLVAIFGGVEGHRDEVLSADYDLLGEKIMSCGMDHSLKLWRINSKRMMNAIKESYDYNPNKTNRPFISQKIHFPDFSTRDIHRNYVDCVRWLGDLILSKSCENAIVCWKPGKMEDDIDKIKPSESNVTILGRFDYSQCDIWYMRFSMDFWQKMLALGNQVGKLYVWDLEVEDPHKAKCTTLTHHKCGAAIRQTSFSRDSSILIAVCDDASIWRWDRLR
EZH2, sequence (Q15022 whole entry partner, species assumed): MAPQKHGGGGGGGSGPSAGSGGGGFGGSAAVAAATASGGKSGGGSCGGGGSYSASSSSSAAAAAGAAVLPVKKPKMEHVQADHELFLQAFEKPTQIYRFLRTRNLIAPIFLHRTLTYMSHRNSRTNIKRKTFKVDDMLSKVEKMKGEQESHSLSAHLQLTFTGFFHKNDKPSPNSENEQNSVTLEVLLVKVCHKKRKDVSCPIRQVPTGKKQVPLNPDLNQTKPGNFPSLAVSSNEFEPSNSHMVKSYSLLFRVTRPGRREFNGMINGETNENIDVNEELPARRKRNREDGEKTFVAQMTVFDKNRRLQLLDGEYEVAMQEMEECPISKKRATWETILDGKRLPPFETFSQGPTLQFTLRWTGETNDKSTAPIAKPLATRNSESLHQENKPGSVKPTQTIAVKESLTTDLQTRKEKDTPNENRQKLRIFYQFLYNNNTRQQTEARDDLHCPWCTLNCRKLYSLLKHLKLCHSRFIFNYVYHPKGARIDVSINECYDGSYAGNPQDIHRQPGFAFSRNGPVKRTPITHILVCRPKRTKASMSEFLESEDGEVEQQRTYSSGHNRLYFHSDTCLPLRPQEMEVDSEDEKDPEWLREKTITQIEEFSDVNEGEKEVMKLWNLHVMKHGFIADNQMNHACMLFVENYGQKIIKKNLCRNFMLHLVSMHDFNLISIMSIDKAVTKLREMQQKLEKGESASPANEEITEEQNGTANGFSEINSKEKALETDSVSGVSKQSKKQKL
T5 sequence (Q9NRG4 whole entry): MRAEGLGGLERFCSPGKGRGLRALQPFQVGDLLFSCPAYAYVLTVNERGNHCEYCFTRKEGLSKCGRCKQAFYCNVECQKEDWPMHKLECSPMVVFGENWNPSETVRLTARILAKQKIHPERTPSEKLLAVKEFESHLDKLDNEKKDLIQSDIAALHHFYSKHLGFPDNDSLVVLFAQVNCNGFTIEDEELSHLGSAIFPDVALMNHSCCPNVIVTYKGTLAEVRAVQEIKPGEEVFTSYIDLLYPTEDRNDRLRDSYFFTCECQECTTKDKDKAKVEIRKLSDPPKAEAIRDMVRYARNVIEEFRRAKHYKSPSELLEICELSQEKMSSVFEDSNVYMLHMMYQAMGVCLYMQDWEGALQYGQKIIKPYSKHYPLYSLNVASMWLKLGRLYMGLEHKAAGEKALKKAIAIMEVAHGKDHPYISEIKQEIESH

SMILES | IC50 ([1]; AlphaLISA assay) [µM] | IC50 [2] [µM] | IC50 [3] [µM] | IC50 [4] [µM] | binding to SET7 in T1ρ (CPMG) NMR [5] | IC50 [6] [µM] | IC50 [7] [µM] | inhibition at 100 µM ([1]; AlphaLISA assay, SET7, 100 μM) [%] | inhibition at 100 µM ([1]; SETD7, 100 μM, selectivity panel (Table 3)) [%] | inhibition at 100 µM [8] [%] | inhibition at 100 µM [9] [%] | inhibition at 100 µM [10] [%] | inhibition at 100 µM [11] [%] | Inhibition Ratio at 100 μM/% [12] [%]
COc1ccc(C(=O)N/N=C/c2ccc([N+](=O)[O-])cc2)cc1Br [DC-S285] | 9.3 | 2.2 | 19.5 | 3.5 | Strong binding signals | 21.4 | 3.9 |  |  |  |  |  |  | 
O=C(N/N=C/c1cc([N+](=O)[O-])ccc1Cl)c1ccc(-c2ccccc2)cc1 [DC-S303] | 1.1 |  | 2.9 |  |  |  |  | 99 | 90.5 | 27.1 | 52.6 | 24.6 | 55.2 | 47.88
